US9387248B2, “Pharmaceutical composition comprising antibody composition which specifically binds to CCR4” (KYOWA HAKKO KIRIN CO., LTD, priority 2009, dated 2016)

B1: KM8760: human CDR-grafted anti-CCR4 antibody lacking fucose modification, VH SEQ ID NO:11, VL SEQ ID NO:12 (antibody, V domains shown)
VH: EVQLVESGGDLVQPGRSLRLSCAASGFIFSNYGMSWVRQAPGKGLEWVATISSASTYSYYPDSVKGRFTISRDNAKNSLYLQMNSLRVEDTALYYCGRHSDGNFAFGYWGQGTLVTVSS
VL: DVLMTQSPLSLPVTPGEPASISCRSSRNIVHINGDTYLEWYLQKPGQSPQLLIYKVSNRFSGVPDRFSGSGSGTDFTLKISRVEAEDVGVYYCFQGSLLPWTFGQGTKVEIK
modifications: afucosylated

Legend:
[1] = system: HH cells; assay: ADCC activity of KM8760 with Lenalidomide-treated hPBMC effector cells, 51Cr release; assay type: cell-based, human; conditions: hPBMC effector cells treated with 0.1, 1 or 10 μmol/L Lenalidomide for one, three or five days; effector:target 25:1; KM8760 0.01, 0.1, 1 μg/mL
Method: Mononuclear cells (hPBMC) were obtained from peripheral blood from healthy adults by density-gradient centrifugation using Ficoll-paque (manufactured by GE health care). The obtained hPBMC was suspended in RPMI1640 medium containing 10% of FBS and 1% of penicillin/streptomycin solution (manufactured by Nacalai Tesque) (hereinafter referred to as medium). Lenalidomide was added to the suspension to give a final concentration of […]. The obtained suspension was incubated at 37° C. for one, three or five days. Thereafter incubation, hPBMC was washed one time with the medium, and the washed cells were adjusted to give a concentration of about 5×10^6 cells/mL using the medium. The obtained cells were used as effector cells.
After 1×10^6 of HH cells suspended in about 100 μL and 20 μL of ^51Cr solution (NEZ030, manufactured by Perkin-Elmer) were mixed, the mixed solution was incubated at 37° C. for 2 to 4 hours so that HH cells were radiolabeled. […]
On a 96-well U-bottom plate, 50 μL of each of effector cells, target cells and antibody solution was mixed (effector cell:target cell=25:1, final concentration of antibody=0.01, 0.1, or 1 μg/mL) and incubated at 37° C. for 4 hours. […] Herein, CPM was measured using a liquid scintillation counter for microplate (TopCount, manufactured by Perkin-Elmer). […] The rate of cytotoxicity (Lysis %) was calculated using the following formula. […]

[2] = system: HH cells grafted into SCID mice; assay: Antitumor effect of anti-CCR4 antibody and Lenalidomide in combination (2), HH cells grafted into SCID mice; assay type: in vivo, SCID mouse; conditions: KM8760 20 mg/kg iv Day 0, 7, 14, 21, Lenalidomide 1 mg/kg ip daily Day 0-13
Method: HH cells (human multiple myeloma cell line; ATCC No: CRL-2105) were suspended in Dulbecco's phosphate buffered saline without calcium chloride and magnesium chloride (PBS, manufactured by Invitrogen) at a density of 2×10^8 cells/mL, and 100 μL of the suspension was transplanted into the ventral skin of SCID mouse (obtained by Nippon Crea, male). Seven days after the cell transplantation, a diameter of a tumor was measured with calipers, and a tumor volume was calculated using the following formula. Tumor volume=short diameter×short diameter×long diameter×0.5 (Formula)
Individuals having the tumor volume within the range of 51 to 79 mm^3 were selected, and grouped such that the average of tumor volume was to be equal. Then, the following administration groups A to D were arranged. The day of grouping was defined as Day 0.
(§1) A. Negative control group: Administration of medium
B. Group administering KM8760 alone: 20 mg/kg was administered on Day 0, Day 7, Day 14 and Day 21.
(§2) C. Group administering Lenalidomide alone: 1 mg/kg was administered everyday on Day 0 to Day 13.
(§3) D. Group administering KM8760 and Lenalidomide in combination: the respective agent was administered on the same schedule and at the same dose as each group administering respective agent alone.
The experiment was conducted with groups each consisting of twelve mice. KM8760 was diluted with saline (manufactured by Otsuka Pharmaceutical), and the obtained solution was administered from the tail vein. Lenalidomide was suspended with saline containing 0.5% of methylcellulose and the diluent was intraperitoneally administered. The tumor volume was measured chronologically. The antitumor effect was evaluated by comparing the average values of values (V/V0) obtained by dividing the tumor volume on each day of measurement by the tumor volume on Day 0 in each group.
The result of a test for a significant difference (Steel-Dwass test) between each group administering the respective agent alone and combination administration group is shown in Table 3. In the table, na means not applicable. In addition, when p<0.05, the value is considered to show a significant difference and is shown with * in the table.
(§4) In the table, * means the case where the actual value of T/C is smaller than the theoretical value.

[3] = system: HH cells grafted into SCID mice; assay: Antitumor effect of anti-CCR4 antibody and Lenalidomide in combination (1), HH cells grafted into SCID mice; assay type: in vivo, SCID mouse; conditions: KM8760 20 mg/kg iv Day 0, 7, 14, Lenalidomide 1 mg/kg ip daily Day 0-13
Method: HH cells (human multiple myeloma cell; ATCC No: CRL-2105) were suspended in Dulbecco's phosphate buffered saline without calcium chloride and magnesium chloride (PBS, manufactured by Invitrogen) at a density of 1×10^7 cells/mL, and 100 μL of the suspension was transplanted into the ventral skin of SCID mouse (obtained by Nippon Crea, male). Seven days after the cell transplantation, a diameter of a tumor was measured with calipers, and a tumor volume was calculated using the following formula. Tumor volume=short diameter×short diameter×long diameter×0.5 (Formula)
Individuals having the tumor volume within the range of 41 to 93 mm^3 were selected, and grouped such that the average of tumor volume was to be equal. Then, the following administration groups A to D were arranged. The day of grouping was defined as Day 0.
as §1
B. Group administering KM8760 alone: 20 mg/kg was administered on Day 0, Day 7 and Day 14.
as §2, §3
The experiment was conducted with groups each consisting of eight mice. KM8760 was diluted with saline (manufactured by Otsuka Pharmaceutical), and the obtained solution was administered from the tail vein. Lenalidomide was suspended with saline containing 0.5% of methylcellulose and the obtained solution was intraperitoneally administered. The tumor volume was measured chronologically. The antitumor effect was evaluated by comparing the average values of values (V/V0) obtained by dividing the tumor volume on each day of measurement by the tumor volume on Day 0 in each group.
The results of the test for significant differences (One-way ANOVA, Dunnett test) compared with the negative control group are shown in Table 1. In addition, when p<0.05, the value is considered to show a significant difference and is shown with * in the table.
as §4

| Molecule | ADCC activity of KM8760 (cytotoxicity rate, Lysis %, FIG. 3) [1] | T/C (V/V0 of group divided by V/V0 of negative control group) ([2]; Day 0) | T/C (V/V0 of group divided by V/V0 of negative control group) ([2]; Day 4) | T/C (V/V0 of group divided by V/V0 of negative control group) ([2]; Day 7) | T/C (V/V0 of group divided by V/V0 of negative control group) ([2]; Day 10) | T/C (V/V0 of group divided by V/V0 of negative control group) ([2]; Day 14) | T/C (V/V0 of group divided by V/V0 of negative control group) ([2]; Day 19) | T/C (V/V0 of group divided by V/V0 of negative control group) ([2]; Day 21) | T/C (V/V0 of group divided by V/V0 of negative control group) ([2]; Day 24) | T/C (V/V0 of group divided by V/V0 of negative control group) ([2]; Day 28) | T/C (V/V0 of group divided by V/V0 of negative control group) ([3]; Day 0) | T/C (V/V0 of group divided by V/V0 of negative control group) ([3]; Day 4) | T/C (V/V0 of group divided by V/V0 of negative control group) ([3]; Day 7) | T/C (V/V0 of group divided by V/V0 of negative control group) ([3]; Day 10) | T/C (V/V0 of group divided by V/V0 of negative control group) ([3]; Day 14) | T/C (V/V0 of group divided by V/V0 of negative control group) ([3]; Day 17) | T/C (V/V0 of group divided by V/V0 of negative control group) ([3]; Day 21) |
| --- | --- | --- | --- | --- | --- | --- | --- | --- | --- | --- | --- | --- | --- | --- | --- | --- | --- |
| Nc1cccc2c1CN(C1CCC(=O)NC1=O)C2=O (stereo not drawn) [Lenalidomide] | clearly enhanced | 1.00 | 1.05 | 0.92 | 0.93 | 0.75 | 0.90 | 0.88 | 0.95 | 0.95 | 1.000 | 1.041 | 0.918 | 0.948 | 0.875 | 0.750 | 0.766 |
| B1 | – | 1.00 | 0.89 | 0.71 | 0.62 | 0.54 | 0.54 | 0.54 | 0.55 | 0.53 | 1.000 | 0.910 | 0.764 | 0.750 | 0.691 | 0.652 | 0.639 |
